Key:
[1] = system: Trypanosoma cruzi; assay: Antitrypanosomal activity against Trypanosoma cruzi (MHOM/CH/00/Tulahuen C2, lacZ) amastigotes infected in HFF-1 cells assessed as reduction in parasite growth incubated for 120 hrs by CPRG/Igepal substrate based photometric method; format: functional, organism-based; conditions: MHOM/CH/00/Tulahuen C2, HFF-1, 120 h
[2] = system: Leishmania infantum; assay: Antileishmanial activity against Leishmania infantum MHOM/MA/67/ITMAP-263 infected in THP1 cells assessed as reduction in parasite growth incubated for 120 hrs by Giemsa staining based inverted microscopic analysis; format: functional, organism-based; conditions: MHOM/MA/67/ITMAP-263, THP-1, 120 h
[3] = Cytotoxicity against human HepG2 cells assessed as reduction in cell viability incubated for 120 hrs by MTS assay; format: cell-based
[4] = Cytotoxicity against human HFF-1 cells assessed as reduction in cell viability incubated for 120 hrs by MTS assay; format: cell-based
[5] = system: Trypanosoma cruzi; assay: Antitrypanosomal activity against Trypanosoma cruzi (MHOM/CH/00/Tulahuen C2, lacZ) amastigotes infected in HFF-1 cells assessed as reduction in parasite growth at 300 uM incubated for 120 hrs by CPRG/Igepal substrate based photometric method relative to control; format: functional; conditions: MHOM/CH/00/Tulahuen C2, HFF-1
[6] = system: Trypanosoma cruzi; assay: Antitrypanosomal activity against Trypanosoma cruzi (MHOM/CH/00/Tulahuen C2, lacZ) amastigotes infected in HFF-1 cells assessed as reduction in parasite growth at 75 uM incubated for 120 hrs by CPRG/Igepal substrate based photometric method relative to control; format: functional; conditions: MHOM/CH/00/Tulahuen C2, HFF-1
[7] = system: Trypanosoma cruzi; assay: Antitrypanosomal activity against Trypanosoma cruzi (MHOM/CH/00/Tulahuen C2, lacZ) amastigotes infected in HFF-1 cells assessed as reduction in parasite growth at 150 uM incubated for 120 hrs by CPRG/Igepal substrate based photometric method relative to control; format: functional; conditions: MHOM/CH/00/Tulahuen C2, HFF-1

Row | IC50 [1] | Compound | IC50 [2] | CC50 at 120 h [3] | CC50 at 120 h [4] | inhibition at 300 µM [5] | inhibition at 75 µM [6] | inhibition at 150 µM [7]
1 | 16.6 µM | C=C(c1nc(-c2ccccc2)no1)C1(O)C(=O)N(CC)c2ccc(C)cc21 (stereo not given) | 6.01 µM | 26.7 µM | > 64 µM |  |  | 
2 | > 64 µM | C=Cc1nc(-c2ccc([N+](=O)[O-])cc2)no1 | 12.2 µM | 26.9 µM | > 64 µM |  |  | 
3 | 23.6 µM | C=C(c1nc(-c2ccc(Cl)cc2)no1)C1(O)C(=O)N(CC)c2ccccc21 (stereo not given) | 4.01 µM | 13.8 µM | > 64 µM |  |  | 
4 | 16.2 µM | C=C(c1nc(-c2ccccc2)no1)C1(O)C(=O)N(c2ccccc2)c2ccccc21 (stereo not given) | 8.17 µM | 14.1 µM | 27.9 µM |  |  | 
5 | > 64 µM | C=C(c1nc(-c2ccc(OC)cc2)no1)C1(O)C(=O)N(CC)c2ccc(OC)cc21 (stereo not given) | 22 µM | 13.6 µM | 54.5 µM |  |  | 
6 | > 100 µM | C=C(c1nc(-c2ccccc2)no1)C1(O)C(=O)N(CC)c2c(Br)cccc21 (stereo not given) | 10.4 µM | 22.8 µM | 21.5 µM |  |  | 
7 | 64.4 µM | C=C(c1nc(-c2ccccc2)no1)C(O)c1ccc(S(C)(=O)=O)cc1 (stereo not given) | 8.47 µM | 28.7 µM | > 64 µM |  |  | 
8 | 81.3 µM | C=C(c1nc(-c2ccccc2)no1)C(O)c1ccc(OC)cc1 (stereo not given) | 18 µM | 33.6 µM | > 64 µM |  |  | 
9 | 17.6 µM | C=C(c1nc(-c2ccccc2)no1)C(O)c1cc2c(cc1Br)OCO2 (stereo not given) | 8.93 µM | 58.5 µM | > 64 µM |  |  | 
10 | > 64 µM | C=C(c1nc(-c2ccc(OC)cc2)no1)C1(O)C(=O)N(CC)c2ccc([N+](=O)[O-])cc21 (stereo not given) | 25.9 µM | 13.6 µM | > 64 µM |  |  | 
11 | > 100 µM | C=C(c1nc(-c2ccccc2)no1)C1(O)C(=O)N(CC)c2ccc(OC)cc21 (stereo not given) | 7.29 µM | 13.5 µM | > 64 µM |  |  | 
12 | > 64 µM | C=C(c1nc(-c2ccc([N+](=O)[O-])cc2)no1)C(O)c1cc(OC)c(OC)c(OC)c1 (stereo not given) | 52.6 µM | 57.3 µM | > 64 µM |  |  | 
13 | > 64 µM | C=C(c1nc(-c2ccc([N+](=O)[O-])cc2)no1)C1(O)C(=O)N(CC)c2ccc(OC)cc21 (stereo not given) | 12 µM | 5.83 µM | 43.6 µM |  |  | 
14 | 25.7 µM | C=C(c1nc(-c2ccccc2)no1)C(O)c1ccccc1Cl (stereo not given) | 17.6 µM | 59.2 µM | > 64 µM |  |  | 
15 | 57.5 µM | C=C(c1nc(-c2ccccc2)no1)C(O)c1ccc(Cl)cc1 (stereo not given) | 6.92 µM | 10.1 µM | > 64 µM |  |  | 
16 | 37.1 µM | C=C(c1nc(-c2ccc([N+](=O)[O-])cc2)no1)C(O)c1nccs1 (stereo not given) | > 64 µM | > 64 µM | > 64 µM |  |  | 
17 | 14.8 µM | C=C(c1nc(-c2ccccc2)no1)C1(O)C(=O)N(CC)c2ccc(F)cc21 (stereo not given) | 3.51 µM | 9.37 µM | > 64 µM |  |  | 
18 | > 64 µM | C=C(c1nc(-c2ccccc2)no1)C1(O)C(=O)N(C)c2ccccc21 (stereo not given) | 51.4 µM | 6.73 µM | 53.8 µM |  |  | 
19 | 28.4 µM | C=C(c1nc(-c2ccc(Cl)cc2)no1)C1(O)C(=O)N(CC)c2ccc(OC)cc21 (stereo not given) | 5.09 µM | 11.5 µM | 40.7 µM |  |  | 
20 | 12.1 µM | CCN1C(=O)C2(OCC=C2c2nc(-c3ccccc3)no2)c2ccccc21 (stereo not given) | 11.7 µM | 60.4 µM | 20.6 µM |  |  | 
21 | > 100 µM | C=C(c1nc(-c2ccc(OC)cc2)no1)C(O)c1ccccc1 (stereo not given) | 11.5 µM | 39.6 µM | 55.1 µM |  |  | 
22 | 12 µM | C=CCOC1(C(=C)c2nc(-c3ccccc3)no2)C(=O)N(CC)c2ccccc21 (stereo not given) | 10.7 µM | > 64 µM | > 64 µM |  |  | 
23 | > 64 µM | C=C(c1nc(-c2ccc(OC)cc2)no1)C1(O)C(=O)N(CC)c2ccccc21 (stereo not given) | 2.85 µM | 26.9 µM | > 64 µM |  |  | 
24 | 27 µM | C=C(c1nc(-c2ccccc2)no1)C(O)c1ccc(Cl)c(F)c1 (stereo not given) | 18.9 µM | 27.8 µM | > 64 µM |  |  | 
25 |  | C=C(c1nc(-c2ccc([N+](=O)[O-])cc2)no1)C1(O)C(=O)N(CC)c2ccccc21 (stereo not given) | 3.33 µM | 10.9 µM |  |  |  | 
26 | 55.7 µM | C=C(c1nc(-c2ccccc2)no1)C(O)/C=C/c1ccccc1 (stereo not given) | 20.6 µM | 30.3 µM | > 64 µM |  |  | 
27 | > 100 µM | C=C(c1nc(-c2ccccc2)no1)C1(O)C(=O)N(CC)c2ccc(OC(F)(F)F)cc21 (stereo not given) | 11.1 µM | 10.4 µM | > 64 µM |  |  | 

Row | IC50 [1] | Compound | IC50 [2] | CC50 at 120 h [3] | CC50 at 120 h [4] | inhibition at 300 µM [5] | inhibition at 75 µM [6] | inhibition at 150 µM [7]
28 | > 100 µM | C=C(c1nc(-c2ccc(OC)cc2)no1)C(O)c1ccccc1[N+](=O)[O-] (stereo not given) | 2.38 µM | 10.6 µM | 42.2 µM |  |  | 
29 | 7.8 µM | C=C(c1nc(-c2ccccc2)no1)C(O)c1ccc([N+](=O)[O-])cc1 (stereo not given) | 10.4 µM | 14.2 µM | > 64 µM |  |  | 
30 | 37.2 µM | C=Cc1nc(-c2ccccc2)no1 | > 64 µM | > 64 µM | > 64 µM |  |  | 
31 | > 100 µM | C=C(c1nc(-c2ccccc2)no1)C(O)c1cccc(F)c1 (stereo not given) | 7.29 µM | 14.1 µM | > 64 µM |  |  | 
32 | 15.6 µM | C=Cc1nc(-c2ccc(OC)cc2)no1 | 25.2 µM | 58 µM | > 64 µM |  |  | 
33 | > 100 µM | C=C(c1nc(-c2cc(OC)c(OC)c(OC)c2)no1)C(O)c1ccccc1 (stereo not given) | 12 µM | 27.4 µM | > 64 µM |  |  | 
34 | 8.8 µM | C=C(c1nc(-c2ccc(OC)cc2)no1)C(O)c1ccccc1C(F)(F)F (stereo not given) | 8.55 µM | > 64 µM | > 64 µM |  |  | 
35 | > 100 µM | C=C(c1nc(-c2ccccc2)no1)C1(O)C(=O)N(CC)c2ccc(Cl)cc21 (stereo not given) | 2.5 µM | 6.78 µM | > 64 µM |  |  | 
36 | > 100 µM | C=C(c1nc(-c2ccccc2)no1)C(O)c1cc(F)cc(F)c1 (stereo not given) | 5.12 µM | 7.92 µM | > 64 µM |  |  | 
37 | 26.7 µM | CCN1C(=O)C2(OCC=C2c2nc(-c3ccccc3)no2)c2cccc(Br)c21 (stereo not given) | 6.41 µM | 58.4 µM | 34.2 µM |  |  | 
38 | > 100 µM | C=C(c1nc(-c2ccccc2)no1)C(O)c1ccc(C#N)cc1 (stereo not given) | 21.7 µM | 32 µM | > 64 µM |  |  | 
39 | > 64 µM | C=C(c1nc(-c2ccc([N+](=O)[O-])cc2)no1)C1(O)C(=O)N(CC)c2ccc([N+](=O)[O-])cc21 (stereo not given) | 7.36 µM | 7.12 µM | > 64 µM |  |  | 
40 | 8.2 µM | C=C(c1nc(-c2ccccc2)no1)C(O)c1ccccc1 (stereo not given) | 9.81 µM | 27.2 µM | > 64 µM |  |  | 
41 | 58.4 µM | C=C(c1nc(-c2ccccc2)no1)C(O)c1ccccc1[N+](=O)[O-] (stereo not given) | 10.3 µM | 14 µM | > 64 µM |  |  | 
42 | > 64 µM | C=C(c1nc(-c2ccc(Cl)cc2)no1)C1(O)C(=O)N(CC)c2ccc([N+](=O)[O-])cc21 (stereo not given) | 6.48 µM | 10.4 µM | > 64 µM |  |  | 
43 | > 100 µM | C=C(c1nc(-c2ccccc2)no1)C(O)c1ccccn1 (stereo not given) | 17.9 µM | 58.6 µM | 30.1 µM |  |  | 
44 | 19.3 µM | C=C(c1nc(-c2ccccc2)no1)C(O)CCCC (stereo not given) | 35.9 µM | > 64 µM | > 64 µM |  |  | 
45 | 36.5 µM | C=C(c1nc(-c2ccccc2)no1)C(O)c1ccc(Br)cc1 (stereo not given) | 43.9 µM | 41.1 µM | > 64 µM |  |  | 
46 | > 100 µM | C=C(c1nc(-c2ccccc2)no1)C1(O)C(=O)N(CC)c2c(Cl)cc(Cl)cc21 (stereo not given) | 4.1 µM | 6.77 µM | > 64 µM |  |  | 
47 | > 64 µM | C=C(c1nc(-c2ccc([N+](=O)[O-])cc2)no1)C(O)c1ccccc1 (stereo not given) | 37.5 µM | 27.1 µM | > 64 µM |  |  | 
48 | 10.6 µM | C=C(c1nc(-c2ccccc2)no1)C1(O)C(=O)N(Cc2ccccc2)c2ccccc21 (stereo not given) | 5.65 µM | 19.2 µM | > 64 µM |  |  | 
49 | > 100 µM | C=C(c1nc(-c2ccc(OC)cc2)no1)C(O)c1ccc(C#N)cc1 (stereo not given) | 3.89 µM | 13.6 µM | > 64 µM |  |  | 
50 | > 100 µM | C=C(c1nc(-c2ccccc2)no1)C1(O)C(=O)N(CC)c2c(Cl)cccc21 (stereo not given) | 4.85 µM | 13.5 µM | 62.1 µM |  |  | 
51 | 5.6 µM | O=C(Cn1ccnc1[N+](=O)[O-])NCc1ccccc1 [BENZNIDAZOLE] |  |  |  | 100% | 85.5% | 92.8%
52 |  | COc1cccc2c1C(=O)c1c(O)c3c(c(O)c1C2=O)C[C@@](O)(C(=O)CO)C[C@@H]3O[C@H]1C[C@H](N)[C@H](O)[C@H](C)O1 [DOXORUBICIN] |  | 0.77 µM | 0.53 µM |  |  | 
53 |  | CCCCCCCCCCCCCCCCOP(=O)([O-])OCC[N+](C)(C)C [MILTEFOSINE] | 2.3 µM |  |  |  |  | 
